In patent US20260193227A1, “THERAPEUTIC COMPOUNDS AND METHODS” (UNIVERSITY OF IOWA RESEARCH FOUNDATION, priority 2022, published 2026):

Target: T1, RAD52 IB mutant (K152A/R153A) (Homo sapiens, UniProt P43351, K152A/R153A)
T1 construct: 6xHis; made in house
T1 sequence (P43351 1-418 K152A/R153A): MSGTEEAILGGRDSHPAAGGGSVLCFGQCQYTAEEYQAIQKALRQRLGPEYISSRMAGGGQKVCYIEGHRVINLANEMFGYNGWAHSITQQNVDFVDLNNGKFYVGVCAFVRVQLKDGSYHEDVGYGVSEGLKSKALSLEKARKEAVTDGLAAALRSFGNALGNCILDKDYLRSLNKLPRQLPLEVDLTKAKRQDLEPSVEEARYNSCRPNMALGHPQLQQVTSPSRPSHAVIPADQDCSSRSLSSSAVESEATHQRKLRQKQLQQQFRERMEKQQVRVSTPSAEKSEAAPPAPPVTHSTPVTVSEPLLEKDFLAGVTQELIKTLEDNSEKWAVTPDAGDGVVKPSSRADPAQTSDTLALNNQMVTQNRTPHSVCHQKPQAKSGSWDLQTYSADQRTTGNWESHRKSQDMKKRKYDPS
Test: FRET-based inhibition of ssDNA binding, inner binding defective RAD52 mutant
Description: Proteins: The 6×His-tagged human RAD52 proteins (wild type and mutants) and untagged human RPA were expressed and purified as previously described in (Hengel S R, eLife. 2016; 5; Grimme J M, et al., Nucleic Acids Res. 2010; 38(9):2917-30; and Henricksen L A, et al., The Journal of biological chemistry. 1994; 269(15):11121-32). RPA and RAD52 protein concentrations were determined by measuring absorbance at 280 nm using extinction coefficients of 88,830 M^−1 cm^−1 and 40,470 M^−1 cm^−1, respectively.
FRET-based DNA binding and inhibition assays: FRET-based that monitor the RAD52-ssDNA, RPA-ssDNA and RAD52-RPA-ssDNA binding were carried out as previously described (Hengel S R, eLife. 2016; 5; Grimme J M, et al., Nucleic Acids Res. 2010; 38(9):2917-30; and Grimme J M, Spies M. FRET-based assays to monitor DNA binding and annealing by Rad52 recombination mediator protein. Methods in molecular biology (Clifton, NJ). 2011; 745:463-83) using Cary Eclipse Spectrofluorimeter (Agilent) at 25° C., in 5 mm quartz cuvettes, and in buffer containing 30 mM Tris-Acetate (pH 7.5) and 1 mM DTT. Cy3 dye was excited at 530 nm and its emission was monitored at 565 nm. Emission of Cy5 acceptor fluorophore excited through the energy transfer from Cy3 donor is monitored at 660 nm simultaneously with emission of Cy3 dye. […]
Spectral properties of many compounds overlapped with the Cy3 and Cy5 fluorescence. […]

SMILES	inhibition of ssDNA binding to IB mutant RAD52
O=C(Cn1cccc([N+](=O)[O-])c1=O)c1c[nH]c2ccccc12 [Example 1]	able to inhibit
COc1ccccc1NS(=O)(=O)c1cc(C(=O)O)ccc1C [Example 8]	able to inhibit
